Source: patent US12486300B2, “Mithramycin oxime derivatives having increased selectivity and anti-cancer activity” (University of Kentucky Research Foundation, priority 2018, dated 2025)

tested on: TC32 Ewing sarcoma cells, expressing EWS-FLI1; assay: Growth inhibition assay, TC32 cells; type: cell-based; settings: ratio of GI50 PC3 to TC32
Protocol: Growth inhibition assay to assess cytotoxicity in ETS vs non-ETS expressing cells. Cells were seeded in clear 96-well plates (VWR, Radnor, PA). Seeding densities were optimized for each cell line to support 5 days of linear growth. Following a 24 hours attachment period, cells in duplicate wells were treated with half-log increments of respective compounds (0 nM and 0.3 nM-10 μM). Working stocks were prepared from an initial 10 mM drug stock diluted in either 100% ethanol or dimethyl sulfoxide (DMSO). All wells contained a final concentration of 0.1% (v/v) respective organic solvent. Immediately following treatment, cell viability was measured for vehicle control (Day 0) wells. Cell viability was measured in the remaining wells after 72 hours of incubation with compound or vehicle control (Day 3).
Percent viability, relative to the initial cell seeding concentration, was calculated by ((TreatmentDay3−Vehicle ControlDay0)/(Vehicle ControlDay3−Vehicle ControlDay0))×100. Percent cell viability was plotted as a function of compound concentration (Log [M]) and the data were fit using a 3-parameter non-linear model with fixed Hill slope constant and 4-parameter non-linear model with variable Hill slope constant. The model with the best curve fit was used to estimate the GI50 in GraphPad Prism 7.0 software (GraphPad Software, La Jolla, CA). The 3-parameter equation used was Y=Bottom+(Top−Bottom)/(1+10[…]((X−Log[IC50]))). The 4-parameter equation used was Y=Bottom+(Top−Bottom)/(1+10[…]((Log[IC50]−X)*Hillslope)). Top and Bottom are plateaus in the units of the Y-axis (response). IC50 is the response (Y-axis) halfway between Top and Bottom plateaus.
All compounds were tested at least once in multi-well replicates and each experiment included one a control compound (i.e., MTM) to ensure the stable response of the cell lines. The selectivity index was estimated by determining the ratio of GI50 estimates between ETS fusion negative and ETS fusion positive cell lines.

Q: `CON=C(C(O)C(C)O)C(OC)C1Cc2cc3cc(OC4CC(OC5CC(O)C(O)C(C)O5)C(O)C(C)O4)c(C)c(O)c3c(O)c2C(=O)C1OC1CC(OC2CC(OC3CC(C)(O)C(O)C(C)O3)C(O)C(C)O2)C(O)C(C)O1` (centres unmarked) [MTM (1)] was tested. Which “PC:TC32 (cellular selectivity)” value did it give?
A: 1.66

Q: Which “PC:TC32 (cellular selectivity)” value does the source give for `COC(C(=NOCc1ccccc1)C(O)C(C)O)C1Cc2cc3cc(OC4CC(OC5CC(O)C(O)C(C)O5)C(O)C(C)O4)c(C)c(O)c3c(O)c2C(=O)C1OC1CC(OC2CC(OC3CC(C)(O)C(O)C(C)O3)C(O)C(C)O2)C(O)C(C)O1` (centres unmarked) [MTM (2)] here?
A: 1.08

Q: With `COC(C(=NO)C(O)C(C)O)C1Cc2cc3cc(OC4CC(OC5CC(O)C(O)C(C)O5)C(O)C(C)O4)c(C)c(O)c3c(O)c2C(=O)C1OC1CC(OC2CC(OC3CC(C)(O)C(O)C(C)O3)C(O)C(C)O2)C(O)C(C)O1` (centres unmarked) [MTM (3)] as the molecule, how does the “PC:TC32 (cellular selectivity)” value read?
A: 1.86

Q: `CCON=C(C(O)C(C)O)C(OC)C1Cc2cc3cc(OC4CC(OC5CC(O)C(O)C(C)O5)C(O)C(C)O4)c(C)c(O)c3c(O)c2C(=O)C1OC1CC(OC2CC(OC3CC(C)(O)C(O)C(C)O3)C(O)C(C)O2)C(O)C(C)O1` (centres unmarked) [MTM (4)] was tested. Which “PC:TC32 (cellular selectivity)” value did it give?
A: 1.15

Q: How did the “PC:TC32 (cellular selectivity)” value turn out when `COC(C(=NOC[Si](C)(C)C)C(O)C(C)O)C1Cc2cc3cc(OC4CC(OC5CC(O)C(O)C(C)O5)C(O)C(C)O4)c(C)c(O)c3c(O)c2C(=O)C1OC1CC(OC2CC(OC3CC(C)(O)C(O)C(C)O3)C(O)C(C)O2)C(O)C(C)O1` (centres unmarked) [MTM (5E)] was run?
A: 1.28

Q: For `COC(C(=NOC[Si](C)(C)C)C(O)C(C)O)C1Cc2cc3cc(OC4CC(OC5CC(O)C(O)C(C)O5)C(O)C(C)O4)c(C)c(O)c3c(O)c2C(=O)C1OC1CC(OC2CC(OC3CC(C)(O)C(O)C(C)O3)C(O)C(C)O2)C(O)C(C)O1` (centres unmarked) [MTM (5Z)], which “PC:TC32 (cellular selectivity)” value is on record?
A: 0.68

Q: For `COC(C(=NOCC(C)C)C(O)C(C)O)C1Cc2cc3cc(OC4CC(OC5CC(O)C(O)C(C)O5)C(O)C(C)O4)c(C)c(O)c3c(O)c2C(=O)C1OC1CC(OC2CC(OC3CC(C)(O)C(O)C(C)O3)C(O)C(C)O2)C(O)C(C)O1` (centres unmarked) [MTM (7E)], which “PC:TC32 (cellular selectivity)” value is on record?
A: 1.04

Q: How did the “PC:TC32 (cellular selectivity)” value turn out when `COC(C(=NOCC(C)C)C(O)C(C)O)C1Cc2cc3cc(OC4CC(OC5CC(O)C(O)C(C)O5)C(O)C(C)O4)c(C)c(O)c3c(O)c2C(=O)C1OC1CC(OC2CC(OC3CC(C)(O)C(O)C(C)O3)C(O)C(C)O2)C(O)C(C)O1` (centres unmarked) [MTM (7Z)] was run?
A: 1.15

Q: How did the “PC:TC32 (cellular selectivity)” value turn out when `C=CCON=C(C(O)C(C)O)C(OC)C1Cc2cc3cc(OC4CC(OC5CC(O)C(O)C(C)O5)C(O)C(C)O4)c(C)c(O)c3c(O)c2C(=O)C1OC1CC(OC2CC(OC3CC(C)(O)C(O)C(C)O3)C(O)C(C)O2)C(O)C(C)O1` (centres unmarked) [MTM (10)] was run?
A: 1.10

Q: How did the “PC:TC32 (cellular selectivity)” value turn out when `COC(C(=NOCc1ccc([N+](=O)[O-])cc1)C(O)C(C)O)C1Cc2cc3cc(OC4CC(OC5CC(O)C(O)C(C)O5)C(O)C(C)O4)c(C)c(O)c3c(O)c2C(=O)C1OC1CC(OC2CC(OC3CC(C)(O)C(O)C(C)O3)C(O)C(C)O2)C(O)C(C)O1` (centres unmarked) [MTM (11)] was run?
A: 1.30

Q: Which “PC:TC32 (cellular selectivity)” value does the source give for `COc1ccc(CON=C(C(O)C(C)O)C(OC)C2Cc3cc4cc(OC5CC(OC6CC(O)C(O)C(C)O6)C(O)C(C)O5)c(C)c(O)c4c(O)c3C(=O)C2OC2CC(OC3CC(OC4CC(C)(O)C(O)C(C)O4)C(O)C(C)O3)C(O)C(C)O2)cc1` (centres unmarked) [MTM (14E)] here?
A: 2.05

Q: How did the “PC:TC32 (cellular selectivity)” value turn out when `COc1ccc(CON=C(C(O)C(C)O)C(OC)C2Cc3cc4cc(OC5CC(OC6CC(O)C(O)C(C)O6)C(O)C(C)O5)c(C)c(O)c4c(O)c3C(=O)C2OC2CC(OC3CC(OC4CC(C)(O)C(O)C(C)O4)C(O)C(C)O3)C(O)C(C)O2)cc1` (centres unmarked) [MTM (14Z)] was run?
A: 2.91

Q: How did the “PC:TC32 (cellular selectivity)” value turn out when `COC(C(=NOC(C)(C)C)C(O)C(C)O)C1Cc2cc3cc(OC4CC(OC5CC(O)C(O)C(C)O5)C(O)C(C)O4)c(C)c(O)c3c(O)c2C(=O)C1OC1CC(OC2CC(OC3CC(C)(O)C(O)C(C)O3)C(O)C(C)O2)C(O)C(C)O1` (centres unmarked) [MTM (15E)] was run?
A: 1.87

Q: How did the “PC:TC32 (cellular selectivity)” value turn out when `COC(C(=NOC(C)(C)C)C(O)C(C)O)C1Cc2cc3cc(OC4CC(OC5CC(O)C(O)C(C)O5)C(O)C(C)O4)c(C)c(O)c3c(O)c2C(=O)C1OC1CC(OC2CC(OC3CC(C)(O)C(O)C(C)O3)C(O)C(C)O2)C(O)C(C)O1` (centres unmarked) [MTM (15Z)] was run?
A: 2.25

Q: How did the “PC:TC32 (cellular selectivity)” value turn out when `COC(C(=NOCCOc1ccc(C(F)(F)F)cc1)C(O)C(C)O)C1Cc2cc3cc(OC4CC(OC5CC(O)C(O)C(C)O5)C(O)C(C)O4)c(C)c(O)c3c(O)c2C(=O)C1OC1CC(OC2CC(OC3CC(C)(O)C(O)C(C)O3)C(O)C(C)O2)C(O)C(C)O1` (centres unmarked) [MTM (16)] was run?
A: 7.91

Q: How did the “PC:TC32 (cellular selectivity)” value turn out when `C#CCON=C(C(O)C(C)O)C(OC)C1Cc2cc3cc(OC4CC(OC5CC(O)C(O)C(C)O5)C(O)C(C)O4)c(C)c(O)c3c(O)c2C(=O)C1OC1CC(OC2CC(OC3CC(C)(O)C(O)C(C)O3)C(O)C(C)O2)C(O)C(C)O1` (centres unmarked) [MTM (17E)] was run?
A: 2.40

Q: With `C#CCON=C(C(O)C(C)O)C(OC)C1Cc2cc3cc(OC4CC(OC5CC(O)C(O)C(C)O5)C(O)C(C)O4)c(C)c(O)c3c(O)c2C(=O)C1OC1CC(OC2CC(OC3CC(C)(O)C(O)C(C)O3)C(O)C(C)O2)C(O)C(C)O1` (centres unmarked) [MTM (17Z)] as the molecule, how does the “PC:TC32 (cellular selectivity)” value read?
A: 1.89

Q: `COC(C(=NOCC(=O)NCCc1c[nH]c2ccccc12)C(O)C(C)O)C1Cc2cc3cc(OC4CC(OC5CC(O)C(O)C(C)O5)C(O)C(C)O4)c(C)c(O)c3c(O)c2C(=O)C1OC1CC(OC2CC(OC3CC(C)(O)C(O)C(C)O3)C(O)C(C)O2)C(O)C(C)O1` (centres unmarked) [MTM (18)] was tested. Which “PC:TC32 (cellular selectivity)” value did it give?
A: 6.44

Q: With `COC(C(=NOCCc1c[nH]c2ccccc12)C(O)C(C)O)C1Cc2cc3cc(OC4CC(OC5CC(O)C(O)C(C)O5)C(O)C(C)O4)c(C)c(O)c3c(O)c2C(=O)C1OC1CC(OC2CC(OC3CC(C)(O)C(O)C(C)O3)C(O)C(C)O2)C(O)C(C)O1` (centres unmarked) [MTM (19)] as the molecule, how does the “PC:TC32 (cellular selectivity)” value read?
A: 1.70

Q: `COC(C(=NOCCc1c[nH]c2ccccc12)C(O)C(C)O)C1Cc2cc3cc(OC4CC(OC5CC(O)C(O)C(C)O5)C(O)C(C)O4)c(C)c(O)c3c(O)c2C(=O)C1OC1CC(OC2CC(OC3CC(C)(O)C(O)C(C)O3)C(O)C(C)O2)C(O)C(C)O1` (centres unmarked) [MTM (19E)] was tested. Which “PC:TC32 (cellular selectivity)” value did it give?
A: 1.40

Q: With `COC(C(=NOCCCc1c[nH]c2ccccc12)C(O)C(C)O)C1Cc2cc3cc(OC4CC(OC5CC(O)C(O)C(C)O5)C(O)C(C)O4)c(C)c(O)c3c(O)c2C(=O)C1OC1CC(OC2CC(OC3CC(C)(O)C(O)C(C)O3)C(O)C(C)O2)C(O)C(C)O1` (centres unmarked) [MTM (21)] as the molecule, how does the “PC:TC32 (cellular selectivity)” value read?
A: 1.38

Q: Which “PC:TC32 (cellular selectivity)” value does the source give for `COC(C(=NOCCCCc1c[nH]c2ccccc12)C(O)C(C)O)C1Cc2cc3cc(OC4CC(OC5CC(O)C(O)C(C)O5)C(O)C(C)O4)c(C)c(O)c3c(O)c2C(=O)C1OC1CC(OC2CC(OC3CC(C)(O)C(O)C(C)O3)C(O)C(C)O2)C(O)C(C)O1` (centres unmarked) [MTM (22)] here?
A: 1.54

Q: `COC(=O)C(Cc1c[nH]c2ccccc12)NC(=O)C(Cc1ccccc1)NC(=O)CON=C(C(O)C(C)O)C(OC)C1Cc2cc3cc(OC4CC(OC5CC(O)C(O)C(C)O5)C(O)C(C)O4)c(C)c(O)c3c(O)c2C(=O)C1OC1CC(OC2CC(OC3CC(C)(O)C(O)C(C)O3)C(O)C(C)O2)C(O)C(C)O1` (centres unmarked) [MTM (23)] was tested. Which “PC:TC32 (cellular selectivity)” value did it give?
A: 7.31

Q: `COC(=O)C(Cc1c[nH]c2ccccc12)NC(=O)C(Cc1c[nH]c2ccccc12)NC(=O)CON=C(C(O)C(C)O)C(OC)C1Cc2cc3cc(OC4CC(OC5CC(O)C(O)C(C)O5)C(O)C(C)O4)c(C)c(O)c3c(O)c2C(=O)C1OC1CC(OC2CC(OC3CC(C)(O)C(O)C(C)O3)C(O)C(C)O2)C(O)C(C)O1` (centres unmarked) [MTM (24)] was tested. Which “PC:TC32 (cellular selectivity)” value did it give?
A: 6.9

Q: For `COC(=O)C(Cc1ccccc1)NC(=O)C(Cc1c[nH]c2ccccc12)NC(=O)CON=C(C(O)C(C)O)C(OC)C1Cc2cc3cc(OC4CC(OC5CC(O)C(O)C(C)O5)C(O)C(C)O4)c(C)c(O)c3c(O)c2C(=O)C1OC1CC(OC2CC(OC3CC(C)(O)C(O)C(C)O3)C(O)C(C)O2)C(O)C(C)O1` (centres unmarked) [MTM (25)], which “PC:TC32 (cellular selectivity)” value is on record?
A: 5.98

Q: For `COC(=O)C(Cc1cn(C)c2ccccc12)NC(=O)CON=C(C(O)C(C)O)C(OC)C1Cc2cc3cc(OC4CC(OC5CC(O)C(O)C(C)O5)C(O)C(C)O4)c(C)c(O)c3c(O)c2C(=O)C1OC1CC(OC2CC(OC3CC(C)(O)C(O)C(C)O3)C(O)C(C)O2)C(O)C(C)O1` (centres unmarked) [MTM (26)], which “PC:TC32 (cellular selectivity)” value is on record?
A: 5.64

Q: Which “PC:TC32 (cellular selectivity)” value does the source give for `COC(=O)C(Cc1ccccc1)NC(=O)CON=C(C(O)C(C)O)C(OC)C1Cc2cc3cc(OC4CC(OC5CC(O)C(O)C(C)O5)C(O)C(C)O4)c(C)c(O)c3c(O)c2C(=O)C1OC1CC(OC2CC(OC3CC(C)(O)C(O)C(C)O3)C(O)C(C)O2)C(O)C(C)O1` (centres unmarked) [MTM (27)] here?
A: 7.06

Q: With `COC(=O)C(Cc1ccccc1)NC(=O)C(Cc1ccccc1)NC(=O)CON=C(C(O)C(C)O)C(OC)C1Cc2cc3cc(OC4CC(OC5CC(O)C(O)C(C)O5)C(O)C(C)O4)c(C)c(O)c3c(O)c2C(=O)C1OC1CC(OC2CC(OC3CC(C)(O)C(O)C(C)O3)C(O)C(C)O2)C(O)C(C)O1` (centres unmarked) [MTM (28)] as the molecule, how does the “PC:TC32 (cellular selectivity)” value read?
A: 11.68

Q: How did the “PC:TC32 (cellular selectivity)” value turn out when `COC(C(=NOCC(=O)NCCc1ccccc1)C(O)C(C)O)C1Cc2cc3cc(OC4CC(OC5CC(O)C(O)C(C)O5)C(O)C(C)O4)c(C)c(O)c3c(O)c2C(=O)C1OC1CC(OC2CC(OC3CC(C)(O)C(O)C(C)O3)C(O)C(C)O2)C(O)C(C)O1` (centres unmarked) [MTM (29)] was run?
A: 1.58
